pEC50: −log10 of the molar value. Values joined by “and” are separate entries in the source; they are usually repeats but may differ in a detail not shown here. Equal entries are not always repeated. Where two headings read alike, the source gives them in different places. One block for each sequence: values may come before it. Ends that are not written are not given here.
Columns and labels:
[1] = system: peptide epitope-specific interferon-γ releasing effector cells in PBL; experiment: IFN-γ ELISPOT on PBL stimulated once in vitro with peptide; type: cell-based, human; conditions: for healthy individuals with CTL response: 12 healthy HLA-A2 positive individuals; for CTL response in cancer patients of different origin (in words): PBL from HLA-matched cancer patients; for breast cancer patients hosting an immune response: eighteen HLA-A2+ breast cancer patients; for breast cancer patients hosting an immune response / melanoma patients hosting an immune response: responder >25 spots per 10^5 cells; for melanoma patients hosting an immune response: six HLA-A2+ melanoma patients; for pancreatic cancer patients with CTL response: two HLA-A2 positive pancreatic cancer patients; for pancreatic cancer patients with response: two HLA-A3+ pancreatic cancer patients; for patients with spontaneous CTL response / patients with spontaneous CTL response (%): PBL from 15 HLA-A2 positive breast cancer patients
Protocol: To extend the sensitivity of the ELISPOT assay, PBL were stimulated once in vitro prior to analysis. At day 0, PBL or crushed lymph nodes were thawed and plated in 2 ml/well at a concentration of 2×10^6 cells in 24-well plates (Nunc, Denmark) in X-vivo medium (Bio Whittaker, Walkersville, Md.), 5% heat-inactivated human serum, and 2 mM of L-glutamine in the presence of 10 μM of peptide. Two days later 20 IU/ml recombinant interleukin-2 (IL-2) (Chiron, Ratingen, Germany) was added to the cultures. The cultured cells were tested for reactivity in the ELISPOT on day 12.
The ELISPOT assay was used to quantify peptide epitope-specific interferon-γ releasing effector cells as described previously (4). Briefly, nitrocellulose bottomed 96-well plates (MultiScreen MAIP N45, Millipore, Hedehusene, Denmark) were coated with anti-IFN-γ antibody (1-D1K, Mabtech, Nacka, Sweden). The wells were washed, blocked by X-vivo medium, and cells added in duplicates at different cell concentrations. Peptides were then added to each well and the plates were incubated overnight. The following day, media was discarded and the wells were washed prior to addition of biotinylated secondary antibody (7-B6-1-Biotin, Mabtech). The plates were incubated for 2 hours, washed and Avidin-enzyme conjugate (AP-Avidin, Calbiochem, Life Technologies) was added to each well. Plates were incubated at RT for 1 hour and the enzyme substrate NBT/BCIP (Gibco, Life Technologies) was added to each well and incubated at RT for 5-10 min. The reaction was terminated by washing with tap-water upon the emergency of dark purple spots. The spots were counted using the ImmunoSpot® Series 2.0 Analyzer (CTL Analyzers, LLC, Cleveland, US) and the peptide specific CTL frequency could be calculated from the numbers of spot-forming cells. All assays were performed in triplicates for each peptide antigen.

[2] = biological target: T1, HLA-A2 (Homo sapiens, UniProt P04439, D140Y/D185E/D98H/E176V/E277Q/G131W/G231S/I119V/I121R/I166T/I218V/L300P/L318F/N151K/N90K/P208A/P217A/Q86G/Q94H/R138H/R169H/T345S); experiment: Assembly assay for peptide binding to MHC class I molecules (stabilisation of HLA from TAP-deficient T2 cells); conditions: recovery of HLA-A2 measured at 50, 5, 0.5, 0.05 μM peptide
T1 construct: empty HLA molecules released upon cell lysis, from the TAP-deficient cell line T2; endogenous in cells; host or cells: T2 (TAP-deficient cell line), metabolically labelled with [35S]-methionine and lysed
Protocol: This assembly assay is carried out as described previously (2), and it is based on stabilisation of the HLA molecule after loading of peptide to the peptide transporter deficient cell line T2. Subsequently, correctly folded stable HLA heavy chains are immunoprecipitated using conformation dependent antibodies and the peptide binding is quantitated.
The binding affinity of the synthetic peptides (Invitrogen, Carlsbad, Calif., USA) to HLA-A2 molecules, metabolically labelled with [^35S]-methionine, was measured in the assembly assay, as described previously. The assay is based on peptide-mediated stabilisation of empty HLA molecules released upon cell lysis, from the TAP-deficient cell line T2. Stably folded HLA-molecules were immune-precipitated using the HLA class I-specific, conformation-dependent mAb W6/32, and separated by isoelectric focusing (IEF) gel electrophoresis. MHC heavy chain bands were quantified using the ImageGauge Phosphorimager program (FUJI photo film Co., Carrollton, Tex., USA). The intensity of the band is directly related to the amount of peptide-bound class I MHC complex recovered during the assay. Subsequently, the extent of stabilisation of HLA-A2 is directly related to the binding affinity of the added peptide. The recovery of HLA-A2 was measured in the presence of 50, 5, 0.5, 0.05 μM of the relevant peptide. The C50 value was calculated for each peptide as the peptide concentration sufficient for half maximal stabilisation.
The amino acid sequence of the Bcl-2 protein was screened for the most probable HLA-A2 nona- and decamer peptide epitopes, using the main HLA-A2 specific anchor residues (2). […] The assembly assay is based on stabilisation of the class I molecule after loading of different concentrations of peptide to the TAP-deficient cell line T2. Subsequently correctly folded stable MHC heavy chains are immunoprecipitated using conformation-dependent antibodies.

[3] = system: antigen-specific CTL in PBL; experiment: Granzyme B (GrB) ELISPOT; type: cell-based, human
Protocol: The Granzyme B (GrB) ELISPOT assay was used for measuring antigen-specific CTL cytotoxicity as described. Briefly, nitrocellulose bottomed 96-well plates (MultiScreen MAIP N45, Millipore) were coated with GrB Capture Antibody (BD Biosciences, Brondby, Denmark). The wells were washed and blocked by X-vivo medium with 5% human serum. The cells were added at different cell concentrations. T2 cells and peptides were then added to each well and the plates were incubated 4 hours, medium was discarded and the wells were washed prior to addition of GrB Detection Antibody (BD Biosciences). The plates were incubated for 2 hours, washed and Avidin horseradish peroxidase (BD Biosciences) was added to each well. Plates were incubated at RT for 1 hour AEC Substrate Reagent (BD Biosciences) was added to each well and incubated at RT for 5-10 min. The reaction was terminated by washing with tap-water upon the emergency of red spots. The spots were counted and the peptide specific CTL frequency was calculated like for the INF-γ ELISPOT. All assays were performed in duplicate or triplicates for each peptide antigen.

[4] = system: CD8+ T cells from PBL; experiment: FACS analysis with Pro5 MHC pentamer staining; type: cell-based, human; conditions: breast cancer patient no. 36, PBL stimulated once in vitro, HLA-A2/Bcl-XL173-182 pentamer
[5] = read-out: C50 (concentration of the peptide required for half maximal binding to HLA-A2)
[6] = four HLA-A1+ breast cancer patients
[7] = seven HLA-A1+ melanoma patients
[8] = six healthy HLA-A1+ individuals
[9] = six HLA-A3+ breast cancer patients, 3×10^5 cells per well, Mcl-1 study
[10] = C50 (concentration of the peptide required for half maximal binding to HLA-A2)

Sequence: VAFFSFGGAL (Peptide derived from Bcl-XL) [Bcl-XL141-150]
healthy individuals with CTL response [1]: no responses were detected
CTL response in cancer patients of different origin (in words) [1]: strong and frequent CTL responses
breast cancer patients hosting an immune response [1]: Four out of eighteen
melanoma patients hosting an immune response [1]: not able to detect a response
pancreatic cancer patients with CTL response [1]: one of the two

pEC50 [2, 5]: 6.00
Sequence: FTARGRFATV [bcl124]

pEC50 [2, 5]: 6.00
Sequence: ALSPVPPVV [Bcl85]

Sequence: PAEEEEDDLY (Peptide derived from Mcl-1) [Mcl-1166-175]
CTL response in cancer patients of different origin (in words) [1]: CTL responses were detected
breast cancer patients with response [1, 6]: one of these
melanoma patients with response [1, 7]: another of these
healthy donors with response [1, 8]: no responses were detected

Sequence: TAYQSFEQV (Peptide derived from Bcl-XL) [Bcl-XL118-126]
CTL response in cancer patients of different origin (in words) [1]: weak spontaneous CTL response

Sequence: QSLEIISRY (Peptide derived from Mcl-1) [Mcl-1177-185]
CTL response in cancer patients of different origin (in words) [1]: CTL responses were detected
breast cancer patients with response [1, 6]: three out of four
melanoma patients with response [1, 7]: one out of seven
healthy donors with response [1, 8]: no responses were detected

Sequence: YLNDHLEPWI (Peptide derived from Bcl-XL) [Bcl-XL173-182]
frequency of peptide specific CTL (GrB ELISPOT) ([3]; Bcl-XL reactive breast cancer patients no. 35 and 36): 50-100 peptide specific CTL per 3×10^5 cells
GrB release in control patient ([3]; breast cancer patient no. 17): no GrB release was detected
pentamer positive T cells among CD8+ T cells [4]: 0.24%
healthy individuals with CTL response [1]: no responses were detected
CTL response in cancer patients of different origin (in words) [1]: strong and frequent CTL responses
breast cancer patients hosting an immune response [1]: nine out of eighteen
peptide specific, IFNγ secreting CD8+ T cells ([1]; same CD8+ culture of breast cancer patient no. 36): around 1.4%
melanoma patients hosting an immune response [1]: two out of six

pEC50 [2, 5]: 6.00
Sequence: SLALVGACI [bcl222]

Sequence: RTKRDWLVK (Peptide derived from Mcl-1) [Mcl-1300-308]
healthy donors with response ([1]; 10 healthy HLA-A3+ individuals): no responses were detected
CTL response in cancer patients of different origin (in words) [1]: strong and frequent CTL responses
breast cancer patients with response [1, 9]: three
pancreatic cancer patients with response ([1]; Mcl-1 study): one of these

Sequence: VLVSRIAAWM (Peptide derived from Bcl-XL) [Bcl-XL161-170]
healthy individuals with CTL response [1]: no responses were detected
CTL response in cancer patients of different origin (in words) [1]: strong and frequent CTL responses
breast cancer patients hosting an immune response [1]: six
pancreatic cancer patients with CTL response [1]: one

Sequence: KTLLSLALV [bcl218]
pEC50 [2, 10]: 5.70

pEC50 [2, 5]: 6.15
Sequence: ALVGACITL [Bcl224]

pEC50 [2, 5]: 4.70 and 4.82
Sequence: YLNRHLHTWI [bcl180]
patients with spontaneous CTL response [1]: four
patients with spontaneous CTL response (%) [1]: ≈ 25%

Sequence: RIAAWMATY (Peptide derived from Bcl-XL) [Bcl-XL165-173]
multiple myeloma patients with response ([1]; HLA-A3+ multiple myeloma patients): one out of four
CTL response in cancer patients of different origin (in words) [1]: strong and frequent CTL responses
breast cancer patients with response ([1]; five HLA-A3+ breast cancer patients, 10^5 cells per well): four out of five
melanoma patients with response ([1]; four HLA-A3+ melanoma patients): four out of four
healthy individuals with response ([1]; seven HLA-A3+ healthy individuals): not able to detect a response
pancreatic cancer patients with response ([1]; Bcl-XL study): two out of two

Sequence: RLKRDWLVK (Modified Mcl-1 peptide) [Mcl-1300-308L2]
breast cancer patients with spontaneous immune response ([1]; number examined not given, data not shown): two

Sequence: RIAAWMATYL (Peptide derived from Bcl-XL) [Bcl-XL165-174]
healthy individuals with CTL response [1]: no responses were detected
CTL response in cancer patients of different origin (in words) [1]: strong and frequent CTL responses
breast cancer patients hosting an immune response [1]: four
melanoma patients hosting an immune response [1]: two
pancreatic cancer patients with CTL response [1]: one

Sequence: AAAGPALSPV [bcl80]
pEC50 [2, 10]: 4.44

Sequence: WMATYLNDHL (Peptide derived from Bcl-XL) [Bcl-XL169-178]
CTL response in cancer patients of different origin (in words) [1]: weak spontaneous CTL response

pEC50 [2, 5]: 5.70
Sequence: NIALWMTEYL [bcl172]
patients with spontaneous CTL response [1]: eight
patients with spontaneous CTL response (%) [1]: 50%

Sequence: RLLFFAPTR (Peptide derived from Mcl-1) [Mcl-195-103]
healthy donors with response ([1]; 10 healthy HLA-A3+ individuals): no responses were detected
CTL response in cancer patients of different origin (in words) [1]: strong and frequent CTL responses
breast cancer patients with response [1, 9]: five
B-CLL patients with response ([1]; six HLA-A3+ patients suffering from B-CLL): two
pancreatic cancer patients with response ([1]; Mcl-1 study): two out of two

pEC50 [2, 5]: 5.52
Sequence: WLSLKTLLSL [bcl214]
GrB release in controls ([3]; breast cancer patient no. 16 and healthy control h1): no GrB release was detected
patients with spontaneous CTL response [1]: eleven
patients with spontaneous CTL response (%) [1]: ≈ 75%
CLL patients with Bcl-2 response ([1]; ten HLA-A2 positive CLL patients, reactivity against bcl208 and bcl214, not broken down by peptide): five
AML patients with Bcl-2 response ([1]; three AML patients, reactivity against bcl208 and bcl214, not broken down by peptide): two
pancreatic cancer patients with CTL response [1]: both

C50 (concentration of the peptide required for half maximal binding to HLA-A2) [2]: did not bind
Sequence: SLKTLLSLAL [bcl216, SLKTLLSLAL]

pEC50 [2, 5]: 6.00
Sequence: LLSLALVGA [bcl220]

C50 (concentration of the peptide required for half maximal binding to HLA-A2) [2]: did not bind
Sequence: ELYGPSMRPL [bcl200]

From patent publication US7842294B2, “Proteins belonging to the Bcl-2 family and fragments thereof, and their use in cancer patients” (Survac APS, priority 2003, dated 2010)
